Source: patent publication US10196357B2, “Biaryl compositions and methods for modulating a kinase cascade” (Athenex, Inc., priority 2007, dated 2019)
Where “and” joins values, the source holds several entries; their conditions need not be identical. Identical values can stand only once. Like-named read-outs stand apart in the source and are kept apart here.

Test: brain exposure after oral administration
Assay type: in vivo, male CD-1 mice
Conditions: for Cmax / Tmax: Brain
Description: Plasma concentrations were measured in mice after oral administration. All doses were formulated in purified water. Four groups of male CD-1 mice were dosed after an overnight fast and fed 4 hours post-dose. Dosing was as follows:
Protein was precipitated with 0.25 mL acetonitrile for plasma, 0.25 mL for brain. After centrifugation, supernatant was directly injected into an LC/MS system. The limit of quantitation was 1 ng/mL using a 50 μL aliquot for plasma and a 50 μL, aliquot for brain. The standard curve was 1 to 1,000 ng/mL for both plasma and brain. HPLC conditions were as follows:
HPLC System: Shimadzu SCL-10 System
• Analytical Column: Aquasil C18 5 μm 100×2 mm column. • Column Temperature: Ambient temperature • Autosampler Temperature: Ambient temperature • Mobile Phase A) 10 mM Ammonium formate in water (pH 4). • B) Acetonitrile. • Flow Rate: 0.6 mL/min • Injection Volume: 2 μL • Gradient:
• Mass Spectrometry Conditions were as follows: • Instrument: ABI Sciex API 4000 • Mode: ESI+ • Experiment: MRM (multiple reaction monitoring) • Transitions: KX2-391: m/z 432.4→114.2 (Rt=3.11 minute) • KX2-361: m/z 406.1→253.2 (Rt=3.33 minute)

[1] = male, CD-1, mouse, single oral dose 10 mg/kg
[2] = male, CD-1, mouse, single oral dose 50 mg/kg

What does the source list for O=C(Cc1ccc(-c2ccc(OCCN3CCOCC3)cc2)cn1)NCc1ccccc1 [KX2-391]?
concentration at 0.5 h (male, CD-1, mouse, brain, po, 10 mg/kg, single PO dose 10 mg/kg (Group 1), 0.5 hr, read-out: Brain Concentrations, Mean): 398 ng/g; concentration at 1 h (male, CD-1, mouse, brain, po, 10 mg/kg, single PO dose 10 mg/kg (Group 1), 1 hr, read-out: Brain Concentrations, Mean): 170 ng/g; concentration at 2 h (male, CD-1, mouse, brain, po, 10 mg/kg, single PO dose 10 mg/kg (Group 1), 2 hr, read-out: Brain Concentrations, Group A, B, C): 126 ng/g; concentration at 2 h (male, CD-1, mouse, brain, po, 10 mg/kg, single PO dose 10 mg/kg (Group 1), 2 hr, read-out: Brain Concentrations, Mean): 98.5 ng/g; concentration at 5 h (male, CD-1, mouse, brain, po, 10 mg/kg, single PO dose 10 mg/kg (Group 1), 5 hr, read-out: Brain Concentrations, Group A, B, C): 67.7 ng/g; concentration at 5 h (male, CD-1, mouse, brain, po, 10 mg/kg, single PO dose 10 mg/kg (Group 1), 5 hr, read-out: Brain Concentrations, Mean): 71.4 ng/g; concentration at 0 hr (male, CD-1, mouse, brain, po, 50 mg/kg, Male CD-1 mice, single PO dose 50 mg/kg (Group 4), 0 hr, Mean, read-out: KX2-391 Brain Concentrations, Mean): 0 ng/g; concentration at 0.5 hr (male, CD-1, mouse, brain, po, 50 mg/kg, Male CD-1 mice, single PO dose 50 mg/kg (Group 4), 0.5 hr, Group A, read-out: KX2-391 Brain Concentrations, Group A): 960 ng/g; concentration at 0.5 hr (male, CD-1, mouse, brain, po, 50 mg/kg, Male CD-1 mice, single PO dose 50 mg/kg (Group 4), 0.5 hr, Group B, read-out: KX2-391 Brain Concentrations, Group B): 2120 ng/g; concentration at 0.5 hr (male, CD-1, mouse, brain, po, 50 mg/kg, Male CD-1 mice, single PO dose 50 mg/kg (Group 4), 0.5 hr, Group C, read-out: KX2-391 Brain Concentrations, Group C): 1050 ng/g; concentration at 0.5 hr (male, CD-1, mouse, brain, po, 50 mg/kg, Male CD-1 mice, single PO dose 50 mg/kg (Group 4), 0.5 hr, Mean, read-out: KX2-391 Brain Concentrations, Mean): 1380 ng/g; concentration at 1 hr (male, CD-1, mouse, brain, po, 50 mg/kg, Male CD-1 mice, single PO dose 50 mg/kg (Group 4), 1 hr, Group A, read-out: KX2-391 Brain Concentrations, Group A): 851 ng/g; concentration at 1 hr (male, CD-1, mouse, brain, po, 50 mg/kg, Male CD-1 mice, single PO dose 50 mg/kg (Group 4), 1 hr, Group B, read-out: KX2-391 Brain Concentrations, Group B): 1890 ng/g; concentration at 1 hr (male, CD-1, mouse, brain, po, 50 mg/kg, Male CD-1 mice, single PO dose 50 mg/kg (Group 4), 1 hr, Group C, read-out: KX2-391 Brain Concentrations, Group C): 549 ng/g; concentration at 1 hr (male, CD-1, mouse, brain, po, 50 mg/kg, Male CD-1 mice, single PO dose 50 mg/kg (Group 4), 1 hr, Mean, read-out: KX2-391 Brain Concentrations, Mean): 1100 ng/g; concentration at 2 hr (male, CD-1, mouse, brain, po, 50 mg/kg, Male CD-1 mice, single PO dose 50 mg/kg (Group 4), 2 hr, Group A, read-out: KX2-391 Brain Concentrations, Group A): 414 ng/g; concentration at 2 hr (male, CD-1, mouse, brain, po, 50 mg/kg, Male CD-1 mice, single PO dose 50 mg/kg (Group 4), 2 hr, Group B, read-out: KX2-391 Brain Concentrations, Group B): 986 ng/g; concentration at 2 hr (male, CD-1, mouse, brain, po, 50 mg/kg, Male CD-1 mice, single PO dose 50 mg/kg (Group 4), 2 hr, Group C, read-out: KX2-391 Brain Concentrations, Group C): 874 ng/g; concentration at 2 hr (male, CD-1, mouse, brain, po, 50 mg/kg, Male CD-1 mice, single PO dose 50 mg/kg (Group 4), 2 hr, Mean, read-out: KX2-391 Brain Concentrations, Mean): 758 ng/g; concentration at 5 hr (male, CD-1, mouse, brain, po, 50 mg/kg, Male CD-1 mice, single PO dose 50 mg/kg (Group 4), 5 hr, Group A, read-out: KX2-391 Brain Concentrations, Group A): 122 ng/g; concentration at 5 hr (male, CD-1, mouse, brain, po, 50 mg/kg, Male CD-1 mice, single PO dose 50 mg/kg (Group 4), 5 hr, Group B, read-out: KX2-391 Brain Concentrations, Group B): 260 ng/g; concentration at 5 hr (male, CD-1, mouse, brain, po, 50 mg/kg, Male CD-1 mice, single PO dose 50 mg/kg (Group 4), 5 hr, Group C, read-out: KX2-391 Brain Concentrations, Group C): 239 ng/g; concentration at 5 hr (male, CD-1, mouse, brain, po, 50 mg/kg, Male CD-1 mice, single PO dose 50 mg/kg (Group 4), 5 hr, Mean, read-out: KX2-391 Brain Concentrations, Mean): 207 ng/g; concentration at 0.5 h (male, CD-1, mouse, brain, po, 50 mg/kg, single PO dose 50 mg/kg (Group 2), 0.5 hr, read-out: Brain Concentrations, Group A, B, C): 2800 ng/g; concentration at 0.5 h (male, CD-1, mouse, brain, po, 50 mg/kg, single PO dose 50 mg/kg (Group 2), 0.5 hr, read-out: Brain Concentrations, Mean): 3690 ng/g; concentration at 1 h (male, CD-1, mouse, brain, po, 50 mg/kg, single PO dose 50 mg/kg (Group 2), 1 hr, read-out: Brain Concentrations, Group A, B, C): 946 ng/g; concentration at 1 h (male, CD-1, mouse, brain, po, 50 mg/kg, single PO dose 50 mg/kg (Group 2), 1 hr, read-out: Brain Concentrations, Mean): 788 ng/g; concentration at 2 h (male, CD-1, mouse, brain, po, 50 mg/kg, single PO dose 50 mg/kg (Group 2), 2 hr, read-out: Brain Concentrations, Group A, B, C): 613 ng/g; concentration at 2 h (male, CD-1, mouse, brain, po, 50 mg/kg, single PO dose 50 mg/kg (Group 2), 2 hr, read-out: Brain Concentrations, Mean): 610 ng/g; concentration at 5 h (male, CD-1, mouse, brain, po, 50 mg/kg, single PO dose 50 mg/kg (Group 2), 5 hr, read-out: Brain Concentrations, Mean): 370 ng/g; Cmax [1]: 398 ng/g; Tmax [1]: 30 min; Cmax [2]: 3690 ng/g; Tmax [2]: 30 min; Brain Concentrations, Group A, B, C (single PO dose 10 mg/kg (Group 1), 0.5 hr, 10 mg/kg): 509.00 ng/g and 286.70 ng/g; Brain Concentrations, Group A, B, C (single PO dose 10 mg/kg (Group 1), 2 hr, 10 mg/kg): 84.04 ng/g and 85.88 ng/g; Brain Concentrations, Group A, B, C (single PO dose 10 mg/kg (Group 1), 5 hr, 10 mg/kg): 75.21 ng/g and 71.22 ng/g; Brain Concentrations, Group A, B, C (single PO dose 50 mg/kg (Group 2), 0.5 hr, 50 mg/kg): 3190.42 ng/g and 5089.32 ng/g; Brain Concentrations, Group A, B, C (single PO dose 50 mg/kg (Group 2), 1 hr, 50 mg/kg): 936.29 ng/g and 482.22 ng/g; Brain Concentrations, Group A, B, C (single PO dose 50 mg/kg (Group 2), 2 hr, 50 mg/kg): 530.41 ng/g and 684.97 ng/g
